Experimental data: the supplement of paper PMC10307832

Assays:
Assay in all cases: relative viability (nuclei count vs DMSO), 5 days (fraction); higher = more cells survive
BEN = system: BEN
Procedure, shortened: (§1)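 Cells from lung cancer lines were seeded into 1536-well plates and, one day later, dosed by pin tool. Treatments were either a single drug or a fixed dose of an anchor drug with five library-drug doses (not always all listed) in √10 steps. After 5 days, nuclei were stained in a one-step fixation (final 0.05% Triton X-100, 1% formaldehyde, 1 ug/ml Hoechst) and counted on 4× images, and relative viability is the treated-to-vehicle nuclei ratio, as the median of duplicate plates.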

CAL-12T = system: CAL-12T
Procedure, shortened: as §1

COR-L23 = system: COR-L23
Procedure, shortened: as §1

HCC-366 = system: HCC-366
Procedure, shortened: as §1

LOU-NH91 = system: LOU-NH91
Procedure, shortened: as §1

LU99A = system: LU99A
Procedure, shortened: as §1

NCI-H1355 = system: NCI-H1355
Procedure, shortened: as §1

NCI-H1437 = system: NCI-H1437
Procedure, shortened: as §1

NCI-H1650 = system: NCI-H1650
Procedure, shortened: as §1

NCI-H1651 = system: NCI-H1651
Procedure, shortened: as §1

NCI-H1734 = system: NCI-H1734
Procedure, shortened: as §1

NCI-H1793 = system: NCI-H1793
Procedure, shortened: as §1

NCI-H1975 = system: NCI-H1975
Procedure, shortened: as §1

NCI-H2023 = system: NCI-H2023
Procedure, shortened: as §1

NCI-H2085 = system: NCI-H2085
Procedure, shortened: as §1

NCI-H2342 = system: NCI-H2342
Procedure, shortened: as §1

NCI-H358 = system: NCI-H358
Procedure, shortened: as §1

NCI-H441 = system: NCI-H441
Procedure, shortened: as §1

NCI-H460 = system: NCI-H460
Procedure, shortened: as §1

NCI-H838 = system: NCI-H838
Procedure, shortened: as §1

SK-LU-1 = system: SK-LU-1
Procedure, shortened: as §1

Molecule `COc1cc2nccc(Oc3ccc(NC(=O)Nc4cc(C)on4)c(Cl)c3)c2cc1OC` [Tivozanib] + O=C(c1cc(Cc2n[nH]c(=O)c3ccccc23)ccc1F)N1CCN(C(=O)C2CC2)CC1 [Olaparib] (partner 8 µM) has a relative viability (BEN; first compound 0.005 µM) of 0.979, a relative viability (BEN; first compound 0.01581 µM) of 1.09 and a relative viability (BEN; first compound 0.05 µM) of 1.07. It also gave a relative viability (BEN; first compound 0.1581 µM) of 1.03, a relative viability (BEN; first compound 0.5 µM) of 0.888 and a relative viability (CAL-12T; first compound 0.005 µM) of 0.666. It also gave a relative viability (CAL-12T; first compound 0.01581 µM) of 0.654, a relative viability (CAL-12T; first compound 0.05 µM) of 0.75 and a relative viability (CAL-12T; first compound 0.1581 µM) of 0.812. The relative viability (CAL-12T; first compound 0.5 µM) was 0.584, the relative viability (COR-L23; first compound 0.005 µM) was 0.324 and the relative viability (COR-L23; first compound 0.01581 µM) was 0.326. The relative viability (COR-L23; first compound 0.05 µM) was 0.376, the relative viability (COR-L23; first compound 0.1581 µM) was 0.363 and the relative viability (COR-L23; first compound 0.5 µM) was 0.298. It also gave a relative viability (HCC-366; first compound 0.005 µM) of 0.367, a relative viability (HCC-366; first compound 0.01581 µM) of 0.365 and a relative viability (HCC-366; first compound 0.05 µM) of 0.37. The relative viability (HCC-366; first compound 0.1581 µM) was 0.363, the relative viability (HCC-366; first compound 0.5 µM) was 0.352 and the relative viability (LOU-NH91; first compound 0.005 µM) was 0.894. It also gave a relative viability (LOU-NH91; first compound 0.01581 µM) of 0.902, a relative viability (LOU-NH91; first compound 0.05 µM) of 0.932 and a relative viability (LOU-NH91; first compound 0.1581 µM) of 0.891. For the same molecule, the relative viability (LOU-NH91; first compound 0.5 µM) was 0.871, the relative viability (LU99A; first compound 0.005 µM) was 0.275 and the relative viability (LU99A; first compound 0.01581 µM) was 0.247. For the same molecule, the relative viability (LU99A; first compound 0.05 µM) was 0.271, the relative viability (LU99A; first compound 0.1581 µM) was 0.231 and the relative viability (LU99A; first compound 0.5 µM) was 0.27. It also gave a relative viability (NCI-H1355; first compound 0.005 µM) of 0.732, a relative viability (NCI-H1355; first compound 0.01581 µM) of 0.755 and a relative viability (NCI-H1355; first compound 0.05 µM) of 0.765. It also gave a relative viability (NCI-H1355; first compound 0.1581 µM) of 0.672, a relative viability (NCI-H1355; first compound 0.5 µM) of 0.753 and a relative viability (NCI-H1437; first compound 0.005 µM) of 0.613. The relative viability (NCI-H1437; first compound 0.01581 µM) was 0.628, the relative viability (NCI-H1437; first compound 0.05 µM) was 0.658 and the relative viability (NCI-H1437; first compound 0.1581 µM) was 0.613. For the same molecule, the relative viability (NCI-H1437; first compound 0.5 µM) was 0.584, the relative viability (NCI-H1650; first compound 0.005 µM) was 0.714 and the relative viability (NCI-H1650; first compound 0.01581 µM) was 0.94. It also gave a relative viability (NCI-H1650; first compound 0.05 µM) of 0.855, a relative viability (NCI-H1650; first compound 0.1581 µM) of 0.837 and a relative viability (NCI-H1650; first compound 0.5 µM) of 0.863. It also gave a relative viability (NCI-H1651; first compound 0.005 µM) of 0.187, a relative viability (NCI-H1651; first compound 0.01581 µM) of 0.188 and a relative viability (NCI-H1651; first compound 0.05 µM) of 0.198. The relative viability (NCI-H1651; first compound 0.1581 µM) was 0.203, the relative viability (NCI-H1651; first compound 0.5 µM) was 0.158 and the relative viability (NCI-H1734; first compound 0.005 µM) was 0.716. The relative viability (NCI-H1734; first compound 0.01581 µM) was 0.6, the relative viability (NCI-H1734; first compound 0.05 µM) was 0.743 and the relative viability (NCI-H1734; first compound 0.1581 µM) was 0.564. For the same molecule, the relative viability (NCI-H1734; first compound 0.5 µM) was 0.609, the relative viability (NCI-H1793; first compound 0.005 µM) was 0.804 and the relative viability (NCI-H1793; first compound 0.01581 µM) was 0.971. It also gave a relative viability (NCI-H1793; first compound 0.05 µM) of 1.03, a relative viability (NCI-H1793; first compound 0.5 µM) of 0.879 and a relative viability (NCI-H1975; first compound 0.005 µM) of 0.753. It also gave a relative viability (NCI-H1975; first compound 0.01581 µM) of 0.815, a relative viability (NCI-H1975; first compound 0.05 µM) of 0.756 and a relative viability (NCI-H1975; first compound 0.1581 µM) of 0.76. For the same molecule, the relative viability (NCI-H1975; first compound 0.5 µM) was 0.662, the relative viability (NCI-H2023; first compound 0.005 µM) was 0.469 and the relative viability (NCI-H2023; first compound 0.01581 µM) was 0.476. The relative viability (NCI-H2023; first compound 0.05 µM) was 0.454, the relative viability (NCI-H2023; first compound 0.1581 µM) was 0.481 and the relative viability (NCI-H2023; first compound 0.5 µM) was 0.454. For the same molecule, the relative viability (NCI-H2085; first compound 0.005 µM) was 0.712, the relative viability (NCI-H2085; first compound 0.01581 µM) was 0.848 and the relative viability (NCI-H2085; first compound 0.05 µM) was 0.876. The relative viability (NCI-H2085; first compound 0.1581 µM) was 0.946, the relative viability (NCI-H2085; first compound 0.5 µM) was 0.734 and the relative viability (NCI-H2342; first compound 0.005 µM) was 0.433. It also gave a relative viability (NCI-H2342; first compound 0.01581 µM) of 0.404, a relative viability (NCI-H2342; first compound 0.05 µM) of 0.465 and a relative viability (NCI-H2342; first compound 0.5 µM) of 0.42. The relative viability (NCI-H358; first compound 0.005 µM) was 0.522, the relative viability (NCI-H358; first compound 0.01581 µM) was 0.612 and the relative viability (NCI-H358; first compound 0.05 µM) was 0.583. It also gave a relative viability (NCI-H358; first compound 0.1581 µM) of 0.61, a relative viability (NCI-H358; first compound 0.5 µM) of 0.542 and a relative viability (NCI-H441; first compound 0.005 µM) of 0.538. For the same molecule, the relative viability (NCI-H441; first compound 0.01581 µM) was 0.531, the relative viability (NCI-H441; first compound 0.05 µM) was 0.525 and the relative viability (NCI-H441; first compound 0.1581 µM) was 0.432. It also gave a relative viability (NCI-H441; first compound 0.5 µM) of 0.396, a relative viability (NCI-H460; first compound 0.005 µM) of 0.377 and a relative viability (NCI-H460; first compound 0.01581 µM) of 0.469. For the same molecule, the relative viability (NCI-H460; first compound 0.05 µM) was 0.496, the relative viability (NCI-H460; first compound 0.1581 µM) was 0.393 and the relative viability (NCI-H460; first compound 0.5 µM) was 0.356. It also gave a relative viability (NCI-H838; first compound 0.005 µM) of 0.785, a relative viability (NCI-H838; first compound 0.01581 µM) of 0.785 and a relative viability (NCI-H838; first compound 0.05 µM) of 0.825. For the same molecule, the relative viability (NCI-H838; first compound 0.1581 µM) was 0.828, the relative viability (NCI-H838; first compound 0.5 µM) was 0.773 and the relative viability (SK-LU-1; first compound 0.005 µM) was 0.465. It also gave a relative viability (SK-LU-1; first compound 0.01581 µM) of 0.474, a relative viability (SK-LU-1; first compound 0.05 µM) of 0.528 and a relative viability (SK-LU-1; first compound 0.1581 µM) of 0.384. The relative viability (SK-LU-1; first compound 0.5 µM) was 0.464.
